{
  "source": "patent US20070225240A1",
  "about": "“Screening Assay and Treatment” (priority 2003, published 2007)",
  "key": {"[1]": {"system": "transactivation function of p53", "experiment": "Transactivation assay, bax-luciferase reporter, Saos2 cells", "assay_type": "cell-based", "settings": "EGF 20 ng/ml + 20% FCS, UO126 20 μM", "protocol": "FIG. 27 Endogenous MAPK is necessary for ASPP1 and ASPP2 to stimulate the activity of p53. (A) Saos2 cells were co-transfected with bax-luciferase, ASPP2 and p53. After transfection, medium containing EGF (20 ng/ml) and 20% FCS were added to the cells, in the presence or absence of the MAPK inhibitor UO126 (20 μM). The negative control contained an equal volume of DMSO. […] (B) The putative MAPK phosphorylation sites of ASPP1 and ASPP2 were mutated to alanine, to generate ASPP1 (S671A), ASPP1 (S746), ASPP2 (S698A) and ASPP2 (S827A). Wild-type and mutant ASPP2 (B) or ASPP1 (C) were co-transfected with p53 and Bax-luciferase reporter in the presence or absence of RafCX (B) or K-rasV12 (C) in Saos2 cells, as indicated. Expression levels of ASPP1, p53 and K-rasV12 are shown in the right panel. PCNA was used as a loading control. The graph represents the fold over p53 and ASPP1 or ASPP2 taken from three independent experiments. FCS, foetal calf serum; EGF, epidermal growth factor; and\nSaos2 cells (7×10^5) were plated 24 hours prior to transfection in 6-cm-diameter dishes. All transactivation assays contained 1 μg of reporter plasmid. […] The fold increase of p53 and ASPP by HRasV12/K-RasV12/RafCX was determined by the activity of p53 and ASPP in combination with RasV12/RafCX divided by the activity of p53 and ASPP alone."}, "ASPP2 [2]": {"system": "ASPP2", "settings": "MCF7, 20% FCS and EGF, cycloheximide 50 μg/ml, with versus without UO126", "protocol": "(§1) Wild-type ASPP2 (A) or mutant ASPP2 (S827A) (B) were transfected in Saos2 cells in the presence or absence of H-rasv12. 16 hours after transfection, the cells were treated with cycloheximide (50 μg/ml) and lysates were made at the times indicated after cycloheximide treatment. The expression of ASPP2 and H-rasV12 were detected with antibodies V5 or HA, respectively. Actin was used as a loading control. (C) MCF7 cells were starved of serum for 24 hours in 0.5% FCS before treatment with 50 μg/ml cycloheximide (CHX) and 20% FCS and EGF, in the presence (right panel) or absence (left panel) of UO126 for the times indicated. 4 mg of lysate was immunoprecipitated with anti-ASPP2 antibody DX54.10 and the presence of ASPP2 was detected by Western blot with the polyclonal ASPP2/77 antibody (top lanes). Phosphorylated MAPK was detected with phospho-specific MAPK antibody and the total MAPK was detected with a MAPK antibody. The intensity of the. ASPP2 protein immunoprecipitated was quantified and the bands at 0 hours of CHX addition was set as 100 for both cells, as shown by the graph (right panel). (D) MDA Panc3 cells were treated with 50 μg/ml cycloheximide, 20 μM UO126 or both cycloheximide and UO126 for the times indicated. The lysate was resolved on SDS-PAGE gels and ASPP1 and ASPP2 protein levels were detected with mAbASPP1.54.2 and DX54.10 antibodies, respectively, and Mcl-1 was detected with an anti-Mcl1 polyclonal antibody.\n(§2) Cells were either transfected with the appropriate expression plasmids or treated with 20 ng/ml EGF and 20 μM UO126 as indicated, the day prior to cycloheximide treatment. Cycloheximide was added to cells at a final concentration of 50 μg/ml in the appropriate medium. Cells were harvested and lysed at the time points indicated."}, "ASPP1 and ASPP2": {"system": "ASPP1 and ASPP2", "protocol": "as §1, §2"}, "ASPP2 [3]": {"system": "ASPP2", "settings": "cells treated with UO126, cell line not stated"}, "[4]": {"settings": "MDA Panc3, cycloheximide 50 μg/ml + UO126 20 μM compared to cycloheximide alone"}},
  "note": "Read-outs that look alike come from different tables or passages of the source.",
  "data": [
    {"smiles": "N#CC(=C(/N)Sc1ccccc1N)/C(C#N)=C(/N)Sc1ccccc1N", "note": "[UO126]", "values": [
      {"measurement": "transactivation function of p53 when ASPP2 was present", "setting": "[1]; p53 + ASPP2", "result": "significantly inhibited"},
      {"measurement": "transactivation function of p53 alone", "setting": "[1]; p53 without ASPP2", "result": "small effect"},
      {"measurement": "ASPP2 protein levels", "setting": "ASPP2 [2]", "result": "significantly decreased"},
      {"measurement": "ASPP1 expression levels", "setting": "ASPP1 and ASPP2; [4]", "result": "significantly decreased"},
      {"measurement": "ASPP2 expression levels", "setting": "ASPP1 and ASPP2; [4]", "result": "significantly decreased"},
      {"measurement": "Mcl-1 stability (control)", "setting": "ASPP1 and ASPP2; MDA Panc3, cycloheximide, presence or absence of UO126", "result": "no difference in its stability"},
      {"measurement": "ASPP2 protein levels", "setting": "ASPP2 [3]", "result": "decrease in ASPP2 protein levels"}
    ]}
  ]
}
